Results on two compounds are retold here after patent US20190053495A1, “POLYMERIC TOPICAL ANTISEPTIC COMPOUND AND METHOD OF USE” (priority 2017, published 2019).

The nature of series [1]: Film thickness of skin scaffold by Dual Polarization Interferometry. In kind it is physicochemical. An excerpt: Film thickness of skin scaffold of polymer 1-Octadecanaminium NN Dimethyl (3 Trihydroxysilyl)propyl chloride polymer with Dual Polarization interferometry.
For series [2] the following is noted: 2 g/kg applied to 10% of shaven skin, ten test animals, Study Day 1; cited from earlier work.

As to `CCCCCCCCCCCCCCCCCC[N+](C)(C)CCC[Si](OC)(OC)OC.[Cl-]` [ODTMSPC, 1-Octadecanaminium, N,N, Dimethyl-N-[(3-trimethoxysilyl)propyl] chloride], the results for the MASS in series [1] (40 seconds post injection) and in series [1] (10 minutes post injection) were 3.83 ngmm^−2 and 3.76 ngmm^−2, respectively. Besides, the THICKNESS in series [1] (40 seconds post injection) amounted to 41.31 nm; in series [1] (10 minutes post injection), 33.51 nm.
Consider “alkyldimethylbenzylammonium chloride [Benzalkonium chloride]”, for which the “Skin reaction at the application site” value in series [2] was “all test animals exhibit erythema, and edema at the application site”.
